What was measured:
[1] = system: common ragweed (AMBEL); assay: Test 25 field trial, postemergence, growth as percent of control; format: in vivo, Ambrosia artemisiifolia
Excerpt: (§1) Corn seeds (hybrid ‘Pioneer 31G96 RR’) were planted in mid spring season, 3.8 cm deep in a clay loam soil having 2% organic matter and a pH of 6.6. Plots were 6.1 m long by 3.0 m wide with rows spaced 76 cm apart. Seeds were spaced 15 cm apart within the rows. The field was managed using conventional tillage practices. […] Giant ragweed and Pennsylvania smartweed could only be evaluated 14 days after application. […] Results are the means of the three replicates. This growth inhibition data was converted to results in the form of “plant growth as a percent of control plant growth” using the calculation “100 minus growth inhibition”.
(§2) When this form of Colby's Equation is used, if the observed effects on weeds are less than the expected values, the mixture is synergistic.

[2] = system: corn (ZEAMD); assay: Test 28 greenhouse, post- and preemergence; format: in vivo, Zea mays ssp. indentata; design: scale not given here; settings: 26 DAA
Method: A greenhouse test was conducted to evaluate the effects on the plant species corn (ZEAMD, Zea mays ssp. indentata), sorghum (SORVU, Sorghum vulgare L.), dry-seeded rice (ORYSA, Oryza sativa L.), wheat (TRZAW, Triticum aestivum L.), ivyleaf morningglory (IPOHE, Ipomoea hederacea (L.) JACQ.), and barnyardgrass (ECHCG, Echinochloa crus-galli (L.) P. BEAUV.), of mixtures of Compound 2 with isoxadifen-ethyl. Corn, sorghum, rice, wheat, ivyleaf morningglory and barnyardgrass seeds were planted in RediEarth, a commercial potting medium. […] Corn plants were treated postemergence at the V2 growth stage, and sorghum, rice, wheat, ivyleaf morningglory, and barnyardgrass plants were treated postemergence at the 3-leaf stage. […] Each treatment was replicated three times. […] Plants were watered as needed.

[3] = system: giant foxtail (SETFA); assay: Test 25 field trial, postemergence, growth as percent of control; format: in vivo, Setaria faberi
Excerpt: as §1, §2

[4] = system: redroot pigweed (AMARE); assay: Test 24 growth chamber, postemergence; format: in vivo, Amaranthus retroflexus; settings: 17 DAA
Method: (§3) Plants were treated postemergence at the 2-4 leaf growth stage, and each treatment was replicated three times. […] Plants were watered as needed. […] Results for barley and wheat are the means across varieties of the three replicates, and results for the weeds are the means of the three replicates.

[5] = system: wild chamomile (MATCH); assay: Test 24 growth chamber, postemergence; format: in vivo, Matricaria chamomilla; settings: 17 DAA
Method: as §3

[6] = system: field poppy (PAPRH); assay: Test 24 growth chamber, postemergence; format: in vivo, Papaver rhoeas; settings: 17 DAA
Method: as §3

[7] = system: giant foxtail (SETFA); assay: Test 26 field trial, postemergence; format: in vivo, Setaria faberi; design: scale not given here
Excerpt: Corn seeds (hybrid ‘Pioneer 31G96’) were planted in mid spring season, 3.8 cm deep in a silt loam soil having 2% organic matter and a pH of 6.6. Plots were 6.1 m long by 3.0 m wide with rows spaced 76 cm apart. Seeds were spaced 15 cm apart within the rows. The field was managed using conventional tillage practices. […] All treatments also included a surfactant. […] Some of the weed species could not be evaluated at every timing. […] Results are the means of the three replicates.

[8] = system: common lambsquarters (CHEAL); assay: Test 4 field trial, postemergence; format: in vivo, Chenopodium album; settings: 14 DAA
[9] = system: velvetleaf (ABUTH); assay: Test 15 greenhouse, postemergence; settings: 12 DAA

COC(=O)c1nc(C2CC2)nc(N)c1Cl [Compound 2, methyl 6-amino-5-chloro-2-cyclopropyl-4-pyrimidinecarboxylate]
AMBEL Obs (percent of control) ([1]; Cpd 2 15 g a.i./ha, 14 DAA): 20% | AMBEL Obs (percent of control) ([1]; Cpd 2 15 g a.i./ha, 28 DAA): 16% | AMBEL Obs (percent of control) ([1]; Cpd 2 15 g a.i./ha, 56 DAA): 0% | AMBEL Obs (percent of control) ([1]; Cpd 2 30 g a.i./ha, 14 DAA): 22% | AMBEL Obs (percent of control) ([1]; Cpd 2 30 g a.i./ha, 28 DAA): 12% | AMBEL Obs (percent of control) ([1]; Cpd 2 30 g a.i./ha, 56 DAA): 0% | AMBEL Obs (percent of control) ([1]; Cpd 2 45 g a.i./ha, 14 DAA): 12% | AMBEL Obs (percent of control) ([1]; Cpd 2 45 g a.i./ha, 28 DAA): 8% | AMBEL Obs (percent of control) ([1]; Cpd 2 45 g a.i./ha, 56 DAA): 0% | ZEAMD Obs ([2]; postemergence, Cpd 2 32 g a.i./ha): 27 | ZEAMD Obs ([2]; postemergence, Cpd 2 64 g a.i./ha): 50 | ZEAMD Obs ([2]; preemergence, Cpd 2 32 g a.i./ha): 7 | ZEAMD Obs ([2]; preemergence, Cpd 2 64 g a.i./ha): 7 | SETFA Obs (percent of control) ([3]; Cpd 2 15 g a.i./ha, 14 DAA): 93% | SETFA Obs (percent of control) ([3]; Cpd 2 15 g a.i./ha, 28 DAA): 98% | SETFA Obs (percent of control) ([3]; Cpd 2 15 g a.i./ha, 56 DAA): 100% | SETFA Obs (percent of control) ([3]; Cpd 2 30 g a.i./ha, 14 DAA): 85% | SETFA Obs (percent of control) ([3]; Cpd 2 30 g a.i./ha, 28 DAA): 88% | SETFA Obs (percent of control) ([3]; Cpd 2 30 g a.i./ha, 56 DAA): 80% | SETFA Obs (percent of control) ([3]; Cpd 2 45 g a.i./ha, 14 DAA): 73% | SETFA Obs (percent of control) ([3]; Cpd 2 45 g a.i./ha, 28 DAA): 80% | SETFA Obs (percent of control) ([3]; Cpd 2 45 g a.i./ha, 56 DAA): 83% | AMARE Obs (scale 0 to 100) ([4]; Cpd 2 4 g a.i./ha): 63 | AMARE Obs (scale 0 to 100) ([4]; Cpd 2 8 g a.i./ha): 67 | AMARE Obs (scale 0 to 100) ([4]; Cpd 2 16 g a.i./ha): 75 | MATCH Obs (scale 0 to 100) ([5]; Cpd 2 4 g a.i./ha): 55 | MATCH Obs (scale 0 to 100) ([5]; Cpd 2 8 g a.i./ha): 65 | MATCH Obs (scale 0 to 100) ([5]; Cpd 2 16 g a.i./ha): 72 | PAPRH Obs (scale 0 to 100) ([6]; Cpd 2 4 g a.i./ha): 62 | PAPRH Obs (scale 0 to 100) ([6]; Cpd 2 8 g a.i./ha): 72 | PAPRH Obs (scale 0 to 100) ([6]; Cpd 2 16 g a.i./ha): 75 | SETFA Obs ([7]; 28 DAA, 30 g a.i./ha): 98 | SETFA Obs ([7]; 28 DAA, 45 g a.i./ha): 97 | SETFA Obs ([7]; 28 DAA, 60 g a.i./ha): 99 | SETFA Obs ([7]; 56 DAA, 30 g a.i./ha): 50 | SETFA Obs ([7]; 56 DAA, 45 g a.i./ha): 73 | SETFA Obs ([7]; 56 DAA, 60 g a.i./ha): 70 | CHEAL Obs ([8]; Cpd 2 30 g a.i./ha alone or with clodinafop 56 or fenoxaprop 90): 83 | CHEAL Obs ([8]; Cpd 2 60 g a.i./ha alone or with clodinafop 56 or fenoxaprop 90): 92 | Obs response, scale 0 to 100 ([9]; 15 g a.i./ha): 31 | Obs response, scale 0 to 100 ([9]; 30 g a.i./ha): 38 | Obs response, scale 0 to 100 ([9]; 45 g a.i./ha): 61

— US20100285959A1, “HERBICIDAL MIXTURES” (priority 2006, published 2010)
